Where two headings read alike, the source gives them in different places.
Experiments:
[1] = test system: soluble VEGF121 and VEGF165 isoforms; assay: ELISA of soluble VEGF production in multiple human tumor cell lines (EC50); assay type: cell-based
Experimental: Study Design. […] In these experiments, cultures were established under normoxic conditions (21% oxygen). […] Cells requiring induction of VEGF production were incubated under hypoxic conditions (1% oxygen). At the completion of treatment, the conditioned media were collected and assayed by ELISA (as described in Section 9.1.1.1) for soluble VEGF121 and VEGF165 isoforms; results were calculated as percentage inhibition relative to vehicle treated controls. EC50 values were calculated from the dose concentration response curves.

[2] = Dose response assessment in nude mice bearing HT1080 xenografts (tumor and plasma human VEGF, tumor size, trough plasma concentration); assay type: in vivo; conditions: male, athymic nude, mouse, plasma, oral; 1 mg/kg BID, 16 hours after the first day of dosing (n=3)
Experimental: Experimental Study Design. HT1080 cells (5×10^6 cells/mouse) were implanted subcutaneously in male athymic nude mice.
Tumor size was measured using calipers at periodic intervals during the study (data shown in Section 9.2.2). […] Mice were sacrificed, and excised tumors were homogenized in buffer containing protease inhibitors. Both terminal intratumoral and pathologic plasma human VEGF levels were measured using an ELISA that recognizes human VEGF121 and VEGF165 (as described in Section 9.1.1.1). Intratumoral VEGF levels were normalized to the total tumor protein concentration, while pathologic plasma human VEGF levels were expressed in pg/mL of plasma.
Experimental Design. The experimental design was reported in Section 9.1.2.2.

[3] = rat, in vivo
[4] = Single-dose oral toxicity study in rats; conditions: Sprague Dawley, rat, in vivo
Experimental: The L23 vehicle was used.
Because maximal exposure occurred at 100 mg/kg, this dose is considered the NOAEL for 1 day of dosing.

[5] = In vitro plasma protein binding of 14C-Compound #10; assay type: in vitro ADME, mice, rats, dogs, monkeys, and humans; conditions: mouse, rat, dog, monkey, human, all species, read-out: plasma protein binding, overall mean

Q: For `COc1ccc([C@H]2c3[nH]c4ccc(Cl)cc4c3CCN2C(=O)Oc2ccc(Cl)cc2)cc1` (racemic) [Compound #10], which EC50 ([1]; A-375, Melanoma, A375, hypoxic (1% oxygen), 48 hours, read-out: VEGF Inhibition Approximate EC50) is on record?
A: Its EC50 is about 0.05 µM.

Q: And the EC50 ([1]; A-431, Epidermoid, A431, 48 hours, read-out: VEGF Inhibition Approximate EC50)?
A: The EC50 was about 0.01 µM.

Q: And the EC50 ([1]; ASPC1, ASPC-1 (Pancreas), 48 hours, read-out: VEGF Inhibition EC50)?
A: Its EC50 is over 30 µM.

Q: What about the EC50 ([1]; Breast, MDA-MB-468, hypoxic (1% oxygen), 48 hours, read-out: VEGF Inhibition Approximate EC50) of the same compound?
A: The EC50 was about 0.005 µM.

Q: What about the EC50 ([1]; Cervical, HeLa, hypoxic (1% oxygen), 48 hours, read-out: VEGF Inhibition Approximate EC50) of the same compound?
A: The EC50 was about 0.002 µM.

Q: What about the EC50 ([1]; Colorectal, HCT-116, 48 hours, read-out: VEGF Inhibition Approximate EC50) of the same compound?
A: The EC50 was about 0.01 µM.

Q: And the EC50 ([1]; Gastric, AGS, 48 hours, read-out: VEGF Inhibition Approximate EC50)?
A: Its EC50 is about 0.0001 µM.

Q: What about the EC50 ([1]; Gastric, Kato III, hypoxic (1% oxygen), 48 hours, read-out: VEGF Inhibition Approximate EC50) of the same compound?
A: The EC50 was about 0.01 µM.

Q: What about the EC50 ([1]; HCT-116, HCT116 (Colorectal), 48 hours, read-out: VEGF Inhibition EC50) of the same compound?
A: The EC50 was 0.01 µM.

Q: What about the EC50 ([1]; HEK293 (Renal cell), 48 hours, read-out: VEGF Inhibition EC50) of the same compound?
A: The EC50 was 0.01 µM.

Q: And the EC50 ([1]; HPAF-2 (Pancreas), 48 hours, read-out: VEGF Inhibition EC50)?
A: Its EC50 is over 30 µM.

Q: What about the EC50 ([1]; HT-1080, Fibrosarcoma, HT1080, 48 hours, read-out: VEGF Inhibition Approximate EC50) of the same compound?
A: Its EC50 is about 0.01 µM.

Q: And the EC50 ([1]; HT-1080, HT1080 (Fibrosarcoma), 48 hours, read-out: VEGF Inhibition EC50)?
A: Its EC50 is 0.01 µM.

Q: What about the EC50 ([1]; HeLa (Cervical), 48 hours, read-out: VEGF Inhibition EC50) of the same compound?
A: Its EC50 is 0.002 µM.

Q: What about the EC50 ([1]; Lung, A549, 48 hours, read-out: VEGF Inhibition Approximate EC50) of the same compound?
A: The EC50 was about 0.05 µM.

Q: And the EC50 ([1]; Lung, Calu-6, hypoxic (1% oxygen), 48 hours, read-out: VEGF Inhibition Approximate EC50)?
A: Its EC50 is about 0.007 µM.

Q: What about the EC50 ([1]; Lung, NCI H460, 48 hours, read-out: VEGF Inhibition Approximate EC50) of the same compound?
A: Its EC50 is about 0.01 µM.

Q: And the EC50 ([1]; MDA-MB-231, 48 h, read-out: VEGF Inhibition Approximate EC50)?
A: The EC50 was about 0.005 µM.

Q: What about the EC50 ([1]; NCI H460 (Lung), 48 hours, read-out: VEGF Inhibition EC50) of the same compound?
A: The EC50 was 0.01 µM.

Q: What about the EC50 ([1]; Neuroblastoma, SY5Y, hypoxic (1% oxygen), 48 hours, read-out: VEGF Inhibition Approximate EC50) of the same compound?
A: Its EC50 is about 0.005 µM.

Q: And the EC50 ([1]; PL45, PL-45 (Pancreas), 48 hours, read-out: VEGF Inhibition EC50)?
A: Its EC50 is over 30 µM.

Q: What about the EC50 ([1]; Pancreas, Capan-1, hypoxic (1% oxygen), 48 hours, read-out: VEGF Inhibition Approximate EC50) of the same compound?
A: The EC50 was about 0.005 µM.

Q: And the EC50 ([1]; Prostate, LNCaP, hypoxic (1% oxygen), 48 hours, read-out: VEGF Inhibition Approximate EC50)?
A: Its EC50 is about 0.015 µM.

Q: What about the EC50 ([1]; Renal cell, HEK293, 48 hours, read-out: VEGF Inhibition Approximate EC50) of the same compound?
A: The EC50 was about 0.01 µM.

Q: What about the EC50 ([1]; SK-OV-3, Ovarian, SKOV3, hypoxic (1% oxygen), 48 hours, read-out: VEGF Inhibition Approximate EC50) of the same compound?
A: Its EC50 is about 0.01 µM.

Q: What about the EC50 ([1]; SNU1, Gastric, SNU-1, 48 hours, read-out: VEGF Inhibition Approximate EC50) of the same compound?
A: Its EC50 is about 0.0001 µM.

Q: What about the EC50 ([1]; U-87MG (Glioblastoma), 48 hours, read-out: VEGF Inhibition EC50) of the same compound?
A: The EC50 was over 30 µM.

Q: And the concentration at 16 h [2]?
A: Its concentration at 16 h is 0.28 µM.

Q: What about the “dose of maximal exposures” value ([3]; both, Sprague Dawley, 7 days) of the same compound?
A: The value was 120 mg/kg/day.

Q: And the “elevation in mean cholesterol levels” value [3]?
A: The value was 2.5-3 fold.

Q: And the “elevation in mean glucose levels” value [3]?
A: Its value is “about 1.3 fold”.

Q: And the “dose of maximal exposure” value [4]?
A: Its value is 100 mg/kg.

Q: What about the fraction unbound [5] of the same compound?
A: The fraction unbound was at most 0.005.
